Measured values taken from patent US8871767B2, “2-arylimidazo[1,2-B]pyridazine, 2-phenylimidazo[1,2-A]pyridine, and 2-phenylimidazo[1,2-A]pyrazine derivatives” (Hengrui (USA) Ltd., priority 2010, dated 2014).
Like-named read-outs stand apart in the source and are kept apart here.

Legend:
[1] = tested on: Hedgehog pathway activation (GLi-luciferase reporter) in Shh Light II reporter cells; assay: Hedgehog pathway activation on Shh Light II reporter cells measured by luciferase activity; assay type: cell-based; settings: Mus musculus, Shh Light II
Summary of the method: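 Shh Light II reporter cells carrying a hedgehog-responsive GLi-luciferase reporter were stimulated either with 500 nM SAG, a direct Smoothened agonist, or with conditioned media containing human Sonic Hedgehog (hShh). Test compounds were evaluated for blocking this pathway activation, quantified by luciferase activity. Cell viability was monitored in parallel with the Celltiter-Blue® assay.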

[2] = tested on: Hedgehog pathway activation on 10T1/2/Smo#3 cells (C3H10T1/2 cells transfected with human Smoothened receptor); assay: Hedgehog pathway activation on 10T1/2/Smo#3 cells measured by ALP activity; assay type: cell-based; settings: Mus musculus, C3H 10T1/2, 10T1/2/Smo#3 cells
Summary of the method: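 C3H10T1/2 cells stably expressing human Smoothened were activated with hShh-conditioned medium (10-20%) or 500 nM SAG, with test compounds present. Pathway block read as inhibited ALP activity (4-methylumbelliferyl phosphate fluorescence); viability checked by CellTiter-Blue. IC50 values reported.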

[3] = hShh activation, read-out: Shh (IC50, inhibition of Hedgehog pathway activation)
[4] = measured by ALP activity, read-out: ALP (IC50, inhibition of Hedgehog pathway activation)

Compound	IC50 ([1]; SAG activation (500 nM SAG), read-out: Shh Light II luciferase activity (SAG activation))	IC50 [1, 3]	IC50 ([1]; hShh activation, read-out: Shh Light II luciferase activity (hShh activation))	IC50 ([2]; hShh activation, ALP activity, read-out: 10T1/2/Smo#3 ALP activity (hShh Activation))	IC50 [2, 4]
O=C(Nc1cc(-c2cn3nc(-c4cccnc4C(F)(F)F)ccc3n2)ccc1Cl)N1CC(F)(F)C1 [Example 669, N-(2-chloro-5-(6-(2-(trifluoromethyl)pyridin-3-yl)imidazo[1,2-b]pyridazin-2-yl)phenyl)-3,3-difluoroazetidine-1-carboxamide]	< 300 nM	28 nM	< 300 nM	< 300 nM	125 nM
O=C(Nc1cc(-c2cn3nc(-c4cccnc4C(F)(F)F)ccc3n2)ccc1Cl)C1CCCCC1 [Example 670, N-(2-chloro-5-(6-(2-(trifluoromethyl)pyridin-3-yl)imidazo[1,2-b]pyridazin-2-yl)phenyl)cyclohexanecarboxamide]	–	61 nM	–	–	620 nM
O=C(Nc1cc(-c2cn3nc(-c4cccnc4C(F)(F)F)ccc3n2)ccc1Cl)C1CCCC1 [Example 671, N-(2-chloro-5-(6-(2-(trifluoromethyl)pyridin-3-yl)imidazo[1,2-b]pyridazin-2-yl)phenyl)cyclopentanecarboxamide]	–	24 nM	–	–	315 nM
CC(C)(C)CC(=O)Nc1cc(-c2cn3nc(-c4cccnc4C(F)(F)F)ccc3n2)ccc1Cl [Example 672, N-(2-chloro-5-(6-(2-(trifluoromethyl)pyridin-3-yl)imidazo[1,2-b]pyridazin-2-yl)phenyl)-3,3-dimethylbutanamide]	–	86 nM	–	–	565 nM
CCOC(=O)Nc1cc(-c2cn3nc(-c4cccnc4C(F)(F)F)ccc3n2)ccc1Cl [Example 673, ethyl 2-chloro-5-(6-(2-(trifluoromethyl)pyridin-3-yl)imidazo[1,2-b]pyridazin-2-yl)phenylcarbamate]	–	169 nM	–	–	678 nM
CC1(C(=O)Nc2cc(-c3cn4nc(-c5cccnc5C(F)(F)F)ccc4n3)ccc2F)CC1 [Example 674, N-(2-fluoro-5-(6-(2-(trifluoromethyl)pyridin-3-yl)imidazo[1,2-b]pyridazin-2-yl)phenyl)-1-methylcyclopropanecarboxamide]	–	59 nM	–	–	140 nM
O=C(CC(F)(F)F)Nc1cc(-c2cn3nc(-c4cccnc4C(F)(F)F)ccc3n2)ccc1Cl [Example 675, N-(2-chloro-5-(6-(2-(trifluoromethyl)pyridin-3-yl)imidazo[1,2-b]pyridazin-2-yl)phenyl)-3,3,3-trifluoropropanamide]	–	99 nM	–	–	777 nM
O=C(Nc1cc(-c2cn3nc(-c4cccnc4C(F)(F)F)ccc3n2)ccc1Cl)C1CC1 [Example 676, N-(2-chloro-5-(6-(2-(trifluoromethyl)pyridin-3-yl)imidazo[1,2-b]pyridazin-2-yl)phenyl)cyclopropanecarboxamide]	–	111 nM	–	–	721 nM
O=C(Nc1cc(-c2cn3nc(-c4cccnc4C(F)(F)F)ccc3n2)ccc1F)C1CCCCC1 [Example 677, N-(2-fluoro-5-(6-(2-(trifluoromethyl)pyridin-3-yl)imidazo[1,2-b]pyridazin-2-yl)phenyl)cyclohexanecarboxamide]	–	146 nM	–	–	637 nM
O=C(Nc1cc(-c2cn3nc(-c4cccnc4C(F)(F)F)ccc3n2)ccc1F)C1CCCC1 [Example 678, N-(2-fluoro-5-(6-(2-(trifluoromethyl)pyridin-3-yl)imidazo[1,2-b]pyridazin-2-yl)phenyl)cyclopentanecarboxamide]	–	139 nM	–	–	342 nM
CC(C)(C)CC(=O)Nc1cc(-c2cn3nc(-c4cccnc4C(F)(F)F)ccc3n2)ccc1F [Example 679, N-(2-fluoro-5-(6-(2-(trifluoromethyl)pyridin-3-yl)imidazo[1,2-b]pyridazin-2-yl)phenyl)-3,3-dimethylbutanamide]	–	254 nM	–	–	658 nM
O=C(CC(F)(F)F)Nc1cc(-c2cn3nc(-c4cccnc4C(F)(F)F)ccc3n2)ccc1F [Example 680, 3,3,3-trifluoro-N-(2-fluoro-5-(6-(2-(trifluoromethyl)pyridin-3-yl)imidazo[1,2-b]pyridazin-2-yl)phenyl)propanamide]	–	518 nM	–	–	3610 nM
O=C(Nc1cc(-c2cn3nc(-c4cccnc4C(F)(F)F)ccc3n2)ccc1F)C1CC1 [Example 681, N-(2-fluoro-5-(6-(2-(trifluoromethyl)pyridin-3-yl)imidazo[1,2-b]pyridazin-2-yl)phenyl)cyclopropanecarboxamide]	–	976 nM	–	–	6560 nM

More lines, now with the values ahead:

IC50 ([1]; SAG activation (500 nM SAG), read-out: Shh Light II luciferase activity (SAG activation))	IC50 [1, 3]	IC50 ([1]; hShh activation, read-out: Shh Light II luciferase activity (hShh activation))	IC50 ([2]; hShh activation, ALP activity, read-out: 10T1/2/Smo#3 ALP activity (hShh Activation))	IC50 [2, 4]	Compound
–	571 nM	–	–	1740 nM	CCOC(=O)Nc1cc(-c2cn3nc(-c4cccnc4C(F)(F)F)ccc3n2)ccc1F [Example 682, ethyl 2-fluoro-5-(6-(2-(trifluoromethyl)pyridin-3-yl)imidazo[1,2-b]pyridazin-2-yl)phenylcarbamate]
–	559 nM	–	–	2550 nM	CC(C)OC(=O)Nc1cc(-c2cn3nc(-c4cccnc4C(F)(F)F)ccc3n2)ccc1F [Example 683, isopropyl 2-fluoro-5-(6-(2-(trifluoromethyl)pyridin-3-yl)imidazo[1,2-b]pyridazin-2-yl)phenylcarbamate]
–	95 nM	–	–	356 nM	O=C(Nc1cc(-c2cn3nc(-c4cccnc4C(F)(F)F)ccc3n2)ccc1F)N1CC(F)(F)C1 [Example 684, 3,3-difluoro-N-(2-fluoro-5-(6-(2-(trifluoromethyl)pyridin-3-yl)imidazo[1,2-b]pyridazin-2-yl)phenyl)azetidine-1-carboxamide]
–	139 nM	–	–	274 nM	CCN(CC)C(=O)Nc1cc(-c2cn3nc(-c4cccnc4C(F)(F)F)ccc3n2)ccc1F [Example 685, 1,1-diethyl-3-(2-fluoro-5-(6-(2-(trifluoromethyl)pyridin-3-yl)imidazo[1,2-b]pyridazin-2-yl)phenyl)urea]
–	149 nM	–	–	218 nM	O=C(Nc1cc(-c2cn3nc(-c4cccnc4C(F)(F)F)ccc3n2)ccc1F)N1CCCC1 [Example 686, N-(2-fluoro-5-(6-(2-(trifluoromethyl)pyridin-3-yl)imidazo[1,2-b]pyridazin-2-yl)phenyl)pyrrolidine-1-carboxamide]
–	463 nM	–	–	1590 nM	CCc1ccc(-c2cn3nc(-c4cccnc4C(F)(F)F)ccc3n2)cc1NC(=O)C1CCCCC1 [Example 687, N-(2-ethyl-5-(6-(2-(trifluoromethyl)pyridin-3-yl)imidazo[1,2-b]pyridazin-2-yl)phenyl)cyclohexanecarboxamide]
–	103 nM	–	–	578 nM	CCc1ccc(-c2cn3nc(-c4cccnc4C(F)(F)F)ccc3n2)cc1NC(=O)C1CCCC1 [Example 688, N-(2-ethyl-5-(6-(2-(trifluoromethyl)pyridin-3-yl)imidazo[1,2-b]pyridazin-2-yl)phenyl)cyclopentanecarboxamide]
–	64 nM	–	–	188 nM	CCc1ccc(-c2cn3nc(-c4cccnc4C(F)(F)F)ccc3n2)cc1NC(=O)C(C)(C)CC [Example 689, N-(2-ethyl-5-(6-(2-(trifluoromethyl)pyridin-3-yl)imidazo[1,2-b]pyridazin-2-yl)phenyl)-2,2-dimethylbutanamide]
–	59 nM	–	–	225 nM	CCc1ccc(-c2cn3nc(-c4cccnc4C(F)(F)F)ccc3n2)cc1NC(=O)C(C)(C)C(F)(F)F [Example 690, N-(2-ethyl-5-(6-(2-(trifluoromethyl)pyridin-3-yl)imidazo[1,2-b]pyridazin-2-yl)phenyl)-3,3,3-trifluoro-2,2-dimethylpropanamide]
–	459 nM	–	–	1220 nM	CCc1ccc(-c2cn3nc(-c4cccnc4C(F)(F)F)ccc3n2)cc1NC(=O)CC(C)(C)C [Example 691, N-(2-ethyl-5-(6-(2-(trifluoromethyl)pyridin-3-yl)imidazo[1,2-b]pyridazin-2-yl)phenyl)-3,3-dimethylbutanamide]
–	416 nM	–	–	951 nM	CCc1ccc(-c2cn3nc(-c4cccnc4C(F)(F)F)ccc3n2)cc1NC(=O)CC(F)(F)F [Example 692, N-(2-ethyl-5-(6-(2-(trifluoromethyl)pyridin-3-yl)imidazo[1,2-b]pyridazin-2-yl)phenyl)-3,3,3-trifluoropropanamide]
–	192 nM	–	–	186 nM	CCc1ccc(-c2cn3nc(-c4cccnc4C(F)(F)F)ccc3n2)cc1NC(=O)N(CC)CC [Example 693, 1,1-diethyl-3-(2-ethyl-5-(6-(2-(trifluoromethyl)pyridin-3-yl)imidazo[1,2-b]pyridazin-2-yl)phenyl)urea]
–	339 nM	–	–	174 nM	CCc1ccc(-c2cn3nc(-c4cccnc4C(F)(F)F)ccc3n2)cc1NC(=O)N1CCCC1 [Example 694, N-(2-ethyl-5-(6-(2-(trifluoromethyl)pyridin-3-yl)imidazo[1,2-b]pyridazin-2-yl)phenyl)pyrrolidine-1-carboxamide]
–	368 nM	–	–	158 nM	CCc1ccc(-c2cn3nc(-c4cccnc4C(F)(F)F)ccc3n2)cc1NC(=O)N1CC(F)(F)C1 [Example 695, N-(2-ethyl-5-(6-(2-(trifluoromethyl)pyridin-3-yl)imidazo[1,2-b]pyridazin-2-yl)phenyl)-3,3-difluoroazetidine-1-carboxamide]
–	254 nM	–	–	229 nM	CCc1ccc(-c2cn3nc(-c4cccnc4C(F)(F)F)ccc3n2)cc1NC(=O)C1(C)COC1 [Example 696, N-(2-ethyl-5-(6-(2-(trifluoromethyl)pyridin-3-yl)imidazo[1,2-b]pyridazin-2-yl)phenyl)-3-methyloxetane-3-carboxamide]
